Measured values as given in US12240862B2, “Inhibitors of peptidylarginine deiminases” (Gilead Sciences, Inc., priority 2020, dated 2025).

Target: T1, human PAD4 (Homo sapiens, UniProt Q9UM07)
T1 construct: human PAD4 (NM_012387), A2P663, was PCR amplified; His-SUMO (N, cleaved yes); made in house; host or cells: E. coli BL21(DE3)
Assay: In vitro PAD4 BAEE biochemical assay
Details: human PAD4, BAEE substrate; 5 nM PAD4, 2 mM calcium chloride, 3 mM BAEE; geometric mean of multiple experiments
Procedure: The PCR product was ligated into linearized pET-SUMO vector (Invitrogen, Carlsbad, CA), which is part of the Champion™ pET SUMO Protein Expression System. After sequence verification for the correct orientation, the pET-SUMO-hPAD4 expression plasmid was transformed into BL21(DE3) cells.
E. Coli BL21(DE3) cells were inoculated in LB medium with kanamycin at 37° C. until A600 nm reached about 0.5. Protein expression was induced by addition of 0.5 mM IPTG (final) and continued overnight at 16° C. at 220 rpm.
Cells were harvested by centrifugation at 5000 rpm for 10 minutes at 4° C. The pellet was resuspended in 300 ml lysis buffer (20 mM Tris-HCl, pH 8.0, 1 mM EDTA, 500 mM NaCl, 1 mM (tris(2-carboxyethyl)phosphine) (TCEP), 10% glycerol, and 1% Triton X100 and EDTA free protease inhibitor) and lysed by 3× passage through a microfluidizer (Microfluidics, Newton, MA) at 18,000 psi. The cell lysate was clarified by centrifugation at 30,000 rpm for 60 minutes at 4° C. […] Bound protein was eluted with a 0-100% linear gradient of 100 mL Ni-B buffer (Ni A buffer+0.5 M Imidazole).
The protein was then reloaded onto a Ni—HP column for a reverse purification step and recovered in flow through fraction. The protein with His-Sumo tag removed was then polished using a 16/60 Superdex-200 gel filtration column with gel filtration buffer (20 mM Tris pH 8.0, NaCl 400 mM and 1 mM TCEP). The fractions containing the protein were pulled and frozen at −80° C.
The enzymatic activity of human PAD4 was monitored in a biochemical assay in the presence or absence of compounds using the small peptidyl arginine mimic BAEE (Na-Benzoyl-L-arginine ethyl ester hydrochloride) as substrate. PAD4 activity led to deamination of BAEE and release of ammonia. Levels of ammonia were monitored by using an amine coupling reaction and were indicative of PAD4 enzymatic activity.
One hundred nanoliters of test compounds dissolved in DMSO at various concentrations were dispensed into a 384-well black OptiPlate using a Labcyte Echo instrument. Ten microliters of a solution of recombinant PAD4 and calcium chloride diluted in PAD4 assay buffer (50 mM MOPS [3-(N-morpholino) propanesulfonic acid], pH 7.6; 50 mM sodium chloride; 0.05% Tween-20; 2 mM dithiothreitol) was added to the compound-containing plate and was incubated for 30 minutes at 25° C. Ten microliters of a solution of BAEE (Sigma-Aldrich #B4500) diluted in PAD4 assay buffer was then added to start the reaction. Final concentrations were 5 nM PAD4, 2 mM calcium chloride, and 3 mM BAEE. The reaction mixture was incubated at 25° C. for 2 hours and was stopped with the addition of 10 microliters of a solution of 75 mM EDTA (Ethylenediaminetetraacetic acid) in PAD4 assay buffer. Thirty microliters of detection solution (5 mM o-phthalaldehyde, 50 mM MOPS [3-(N-morpholino) propanesulfonic acid], pH 7.6; 50 mM sodium chloride; 0.05% Tween-20; 5 mM dithiothreitol) was then added and the reaction was incubated for 1 hour at 25° C.

T1 sequence (Q9UM07 2-663): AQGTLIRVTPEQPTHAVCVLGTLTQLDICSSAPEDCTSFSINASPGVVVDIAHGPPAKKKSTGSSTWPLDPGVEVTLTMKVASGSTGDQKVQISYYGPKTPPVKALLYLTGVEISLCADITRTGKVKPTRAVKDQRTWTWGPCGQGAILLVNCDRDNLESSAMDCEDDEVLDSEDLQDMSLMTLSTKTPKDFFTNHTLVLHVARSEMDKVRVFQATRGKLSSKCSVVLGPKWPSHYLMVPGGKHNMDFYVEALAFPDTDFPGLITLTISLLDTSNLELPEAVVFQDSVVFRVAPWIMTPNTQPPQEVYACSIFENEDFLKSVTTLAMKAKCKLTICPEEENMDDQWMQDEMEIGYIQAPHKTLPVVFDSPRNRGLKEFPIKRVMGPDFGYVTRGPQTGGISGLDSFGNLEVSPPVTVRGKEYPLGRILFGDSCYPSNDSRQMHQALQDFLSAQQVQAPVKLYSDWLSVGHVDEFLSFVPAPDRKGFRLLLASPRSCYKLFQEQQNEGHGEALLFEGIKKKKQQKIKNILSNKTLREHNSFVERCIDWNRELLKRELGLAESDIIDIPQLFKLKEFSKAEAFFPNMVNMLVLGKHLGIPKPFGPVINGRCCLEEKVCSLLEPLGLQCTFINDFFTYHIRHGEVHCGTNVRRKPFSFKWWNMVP

Row | IC50 | SMILES
1 | 73.1 nM | COc1cc(C(=O)N2[C@H]3CC[C@@H]2[C@H](N)C3)cc2nc(-c3cc4ccc(N5C[C@H](C)OCS5(=O)=O)nc4n3CC3CC3)c(C)n12 [Example 441, [(1~{R},2~{R},4~{S})-2-amino-7-azabicyclo [2.2.1]heptan-7-yl]-[2-[1-(cyclopropylmethyl)-6-[(6~{S})-6-methyl-3,3-dioxo-1,3,4-oxathiazinan-4-yl]pyrrolo[2,3-b]pyridin-2-yl]-5-methoxy-3-methylimidazo[1,2-a]pyridin-7-yl]methanone]
2 | 45.3 nM | COCC1(C(=O)N[C@H](C)c2ccc3cc(-c4nc5cc(C(=O)N6[C@H]7CC[C@@H]6[C@H](N)C7)cc(OC)n5c4C)n(CC4CC4)c3n2)CC1 [Example 68, ~{N}-[(1~{R})-1-[2-[7-[(1~{R},2~{R},4~{S})-2-amino-7-azabicyclo [2.2.1]heptane-7-carbonyl]-5-methoxy-3-methylimidazo [1,2-a]pyridin-2-yl]-1-(cyclopropylmethyl)pyrrolo[2,3-b]pyridin-6-yl]ethyl]-1-(methoxymethyl) cyclopropane-1-carboxamide]
3 | 103 nM | COc1cc(C(=O)N2[C@H]3CC[C@@H]2[C@H](N)C3)cc2nc(-c3cc4ccc([C@@H](C)NC(=O)NCc5ccccc5)nc4n3CC3CC3)c(C)n12 [Example 233, 1-[(1~{R})-1-[2-[7-[(1~{R},2~{R},4~{S})-2-amino-7-azabicyclo[2.2.1]heptane-7-carbonyl]-5-methoxy-3-methylimidazo [1,2-a]pyridin-2-yl]-1-(cyclopropylmethyl)pyrrolo [2,3-b]pyridin-6-yl]ethyl]-3-benzylurea]
4 | 553 nM | COc1cc(C(=O)N2[C@H]3CC[C@@H]2[C@H](N)C3)cc2nc(-c3cc4ccc(Oc5ccccc5)nc4n3CC3CC3)c(C)n12 [Example 628, [(1~{R},2~{R},4~{S})-2-amino-7-azabicyclo [2.2.1]heptan-7-yl]-[2-[1-(cyclopropylmethyl)-6-phenoxypyrrolo[2,3-b]pyridin-2-yl]-5-methoxy-3-methylimidazo[1,2-a]pyridin-7-yl]methanone]
5 | 68.5 nM | COc1cc(C(=O)N2[C@H]3CC[C@@H]2[C@H](N)C3)cc2nc(-c3cc4ccc([C@@H](C)NC(=O)C56CC(F)(C5)C6)nc4n3CC3CC3)c(C)n12 [Example 169, N—((R)-1-(2-(7-((1R,2R,4S)-2-amino-7-azabicyclo[2.2.1]heptane-7-carbonyl)-5-methoxy-3-methylimidazo[1,2-a]pyridin-2-yl)-1-(cyclopropylmethyl)-1H-pyrrolo[2,3-b]pyridin-6-yl)ethyl)-3-fluorobicyclo[1.1.1]pentane-1-carboxamide]
6 | 3210 nM | CCc1ccc2cc(-c3nc4cc(C(=O)N5CCC[C@@H](N)C5)cc(OC)n4c3C)n(CC3CC3)c2c1F [Example 586, [(3~{R})-3-aminopiperidin-1-yl]-[2-[1-(cyclopropylmethyl)-6-ethyl-7-fluoroindol-2-yl]-5-methoxy-3-methylimidazo [1,2-a]pyridin-7-yl]methanone]
7 | 114 nM | COc1cc(C(=O)N2[C@H]3CC[C@@H]2[C@H](N)C3)cc2nc(-c3cc4ccc(OCC(=O)N(C)C)nc4n3CC3CC3)c(C)n12 [Example 624, 2-[2-[7-[(1~{R},2~{R}, 4~{S})-2-amino-7-azabicyclo[2.2.1]heptane-7-carbonyl]-5-methoxy-3-methylimidazo[1,2-a]pyridin-2-yl]-1-(cyclopropylmethyl)pyrrolo [2,3-b]pyridin-6-yl] oxy-~{N},~{N}-dimethylacetamide]
8 | 53.2 nM | COc1cc(C(=O)N2[C@H]3CC[C@@H]2[C@H](N)C3)cc2nc(-c3cc4ccc([C@@H](C)NC(=O)C56CC(C5)C6)nc4n3CC3CC3)c(C)n12 [Example 160, ~{N}-[(1~{R})-1-[2-[7-[(1~{R},2~{R},4~{S})-2-amino-7-azabicyclo[2.2.1]heptane-7-carbonyl]-5-methoxy-3-methylimidazo [1,2-a]pyridin-2-yl]-1-(cyclopropylmethyl)pyrrolo [2,3-b]pyridin-6-yl]ethyl]bicyclo[1.1.1]pentane-1-carboxamide]
9 | 81 nM | COc1cc(C(=O)N2[C@H]3CC[C@@H]2[C@H](N)C3)cc2nc(-c3cc4ccc([C@H]5CCNC(=O)C5)nc4n3CC3CC3)c(C)n12 [Example 554, (4~{S})-4-[2-[7-[(1~{R}, 2~{R},4~{S})-2-amino-7-azabicyclo[2.2.1]heptane-7-carbonyl]-5-methoxy-3-methylimidazo [1,2-a]pyridin-2-yl]-1-(cyclopropylmethyl)pyrrolo [2,3-b]pyridin-6-yl]piperidin-2-one]
10 | 22.5 nM | COc1cc(C(=O)N2[C@H]3CC[C@@H]2[C@H](N)C3)cc2nc(-c3cc4ccc([C@@H](C)NC(=O)C5CCC5)nc4n3CC3CC3)c(C)n12 [Example 101]
11 | 144 nM | COc1cc(C(=O)N2[C@H]3CC[C@@H]2[C@H](N)C3)cc2nc(-c3cc4ccc([C@@H](C)Nc5ccccn5)nc4n3CC3CC3)c(C)n12 [Example 261, [(1~{R},2~{R},4~{S})-2-amino-7-azabicyclo [2.2.1]heptan-7-yl]-[2-[1-(cyclopropylmethyl)-6-[(1~{R})-1-(pyridin-2-ylamino)ethyl]pyrrolo[2,3-b]pyridin-2-yl]-5-methoxy-3-methylimidazo[1,2-a]pyridin-7-yl]methanone]
12 | 73.8 nM | COc1cc(C(=O)N2[C@H]3CC[C@@H]2[C@H](N)C3)cc2nc(-c3cc4ccc([C@@H](C)NC(=O)C56CC(C#N)(C5)C6)nc4n3CC3CC3)c(C)n12 [Example 158, ~{N}-[(1~{R})-1-[2-[7-[(1~{R},2~{R},4~{S})-2-amino-7-azabicyclo[2.2.1]heptane-7-carbonyl]-5-methoxy-3-methylimidazo [1,2-a]pyridin-2-yl]-1-(cyclopropylmethyl)pyrrolo [2,3-b]pyridin-6-yl]ethyl]-3-cyanobicyclo[1.1.1]pentane-1-carboxamide]
13 | 14000 nM | COc1cc(C(=O)N[C@H]2CNCC[C@@H]2OC)cc2nc(-c3cc4ccc(N(C(F)F)S(C)(=O)=O)nc4n3CC3CC3)c(C)n12 [Example 285, 2-[1-(cyclopropylmethyl)-6-[difluoromethyl (methylsulfonyl)amino]pyrrolo[2,3-b]pyridin-2-yl]-5-methoxy-~ {N}-[(3~{S},4~{S})-4-methoxypiperidin-3-yl]-3-methylimidazo[1,2-a] pyridine-7-carboxamide]
14 | 19200 nM | COc1cc(C(=O)NC[C@H]2CCCN2)cc2nc(-c3cc4ccc(N(C(F)F)S(C)(=O)=O)nc4n3CC3CC3)c(C)n12 [Example 304, 2-[1-(cyclopropylmethyl)-6-[difluoromethyl (methylsulfonyl)amino]pyrrolo[2,3-b]pyridin-2-yl]-5-methoxy-3-methyl-~{N}-[[(2~{R})-pyrrolidin-2-yl]methyl] imidazo[1,2-a]pyridine-7-carboxamide]
15 | 177 nM | COc1cc(C(=O)N2CC[C@@H](O)[C@@H](N)C2)cc2nc(-c3cc4ccc([C@@H](C)NC(=O)c5ccccc5)nc4n3CC3CC3)c(C)n12 [Example 115]
16 | 125 nM | COc1cc(C(=O)N2[C@H]3CC[C@@H]2[C@H](N)C3)cc2nc(-c3cc4ccc(C5CCCCN5C(C)=O)nc4n3CC3CC3)c(C)n12 (stereo partly shown) [Example 515, 1-[2-[2-[7-[(1~{R},2~{R}, 4~{S})-2-amino-7-azabicyclo[2.2.1]heptane-7-carbonyl]-5-methoxy-3-methylimidazo[1,2-a]pyridin-2-yl]-1-(cyclopropylmethyl)pyrrolo[2,3-b]pyridin-6-yl]piperidin-1-yl] ethenone]
